Tested on: 996289-038-R-J1-PDC spheroid viability
Experiment: Anticancer human tumor 996289-038-R-J1-PDC patient-derived colon adenocarcinoma cell line growth inhibition [PI3K]
Details: spheroids with HUVEC and MSC; for IC50: curve of first compound; for viability, T/C: stronger effect = lower value
Summary of the method: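 We assembled tumor spheroids that included a stromal compartment of HUVEC and MSCs, then exposed them to targeted agents alone and together with PI3K pathway inhibitors. Concentration series descended by half-log from clinically achievable Cmax levels. Viability served as the endpoint.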
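Note: spheroids exposed to compounds for seven days before viability read.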
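Throughout, for viability, T/C: luminescence used as a proxy for viable cell amount; percent viability relative to DMSO vehicle control as 100%.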

For `Cn1ncnc1[C@H]1c2n[nH]c(=O)c3cc(F)cc(c23)N[C@@H]1c1ccc(F)cc1` + CC(Nc1ccc2c(c1)OCCn1cc(N3C(=O)OCC3C(F)F)nc1-2)C(N)=O, the IC50 (second compound 0.00316 µM) was over 100 nM, the IC50 (second compound 0.01 µM) was over 100 nM and the IC50 (second compound 0.0316 µM) was over 100 nM. The IC50 (second compound 0.1 µM) was over 100 nM, the IC50 (second compound 0.316 µM) was over 100 nM and the IC50 (second compound 1 µM) was over 100 nM. It also gave a viability, T/C (second compound 0.00316 µM, first compound 0.000316 µM) of 109%, a viability, T/C (second compound 0.00316 µM, first compound 0.001 µM) of 104% and a viability, T/C (second compound 0.00316 µM, first compound 0.00316 µM) of 95%. For the same compound, the viability, T/C (second compound 0.00316 µM, first compound 0.01 µM) was 112%, the viability, T/C (second compound 0.00316 µM, first compound 0.0316 µM) was 99.5% and the viability, T/C (second compound 0.00316 µM, first compound 0.1 µM) was 90.2%. The viability, T/C (second compound 0.01 µM, first compound 0.000316 µM) was 103%, the viability, T/C (second compound 0.01 µM, first compound 0.001 µM) was 102% and the viability, T/C (second compound 0.01 µM, first compound 0.00316 µM) was 103%. The viability, T/C (second compound 0.01 µM, first compound 0.01 µM) was 111%, the viability, T/C (second compound 0.01 µM, first compound 0.0316 µM) was 106% and the viability, T/C (second compound 0.01 µM, first compound 0.1 µM) was 98.6%. It also gave a viability, T/C (second compound 0.0316 µM, first compound 0.000316 µM) of 114%, a viability, T/C (second compound 0.0316 µM, first compound 0.001 µM) of 85.7% and a viability, T/C (second compound 0.0316 µM, first compound 0.00316 µM) of 88.5%. It also gave a viability, T/C (second compound 0.0316 µM, first compound 0.01 µM) of 101%, a viability, T/C (second compound 0.0316 µM, first compound 0.0316 µM) of 97.3% and a viability, T/C (second compound 0.0316 µM, first compound 0.1 µM) of 85.4%. The viability, T/C (second compound 0.1 µM, first compound 0.000316 µM) was 89.1%, the viability, T/C (second compound 0.1 µM, first compound 0.001 µM) was 87.6% and the viability, T/C (second compound 0.1 µM, first compound 0.00316 µM) was 77.5%. It also gave a viability, T/C (second compound 0.1 µM, first compound 0.01 µM) of 91.6%, a viability, T/C (second compound 0.1 µM, first compound 0.0316 µM) of 92% and a viability, T/C (second compound 0.1 µM, first compound 0.1 µM) of 78.3%. It also gave a viability, T/C (second compound 0.316 µM, first compound 0.000316 µM) of 81.7%, a viability, T/C (second compound 0.316 µM, first compound 0.001 µM) of 77.8% and a viability, T/C (second compound 0.316 µM, first compound 0.00316 µM) of 81.2%. For the same compound, the viability, T/C (second compound 0.316 µM, first compound 0.01 µM) was 82.2%, the viability, T/C (second compound 0.316 µM, first compound 0.0316 µM) was 79.2% and the viability, T/C (second compound 0.316 µM, first compound 0.1 µM) was 68.7%. It also gave a viability, T/C (second compound 1 µM, first compound 0.000316 µM) of 53%, a viability, T/C (second compound 1 µM, first compound 0.001 µM) of 59.8% and a viability, T/C (second compound 1 µM, first compound 0.00316 µM) of 68.6%. It also gave a viability, T/C (second compound 1 µM, first compound 0.01 µM) of 58.1%, a viability, T/C (second compound 1 µM, first compound 0.0316 µM) of 59.2% and a viability, T/C (second compound 1 µM, first compound 0.1 µM) of 54.2%.

From PubChem BioAssay AID1963965 (Molecular Pharmacology Branch, DTP, NCI, 2024)
